Measured values taken from US20200170244A1, “METHODS FOR PRESERVING, TRANSPORTING AND STORING LIVING BIOLOGICAL MATERIALS” (priority 2013, published 2020).
Entries after “also recorded” stand apart in the source; their conditions may differ.

Test system: keratinocytes
Assay: Effect of vanadium compounds on proliferation of keratinocytes (hair follicle culture, cell count)
Type: cell-based
Details: 14 days at 31° C.; for amount of proliferated keratinocytes (number of cells per ml of culture medium): 1 mg/ml in basic SFK growth serum, relative to control SFK without vanadium compound
Description: Method: The hair follicles were transferred to a 24-well culture disk containing dSFK with […] penicillin (Life Technologies B.V. Breda, The Netherlands) and 0.25 μg/ml streptomycin (Life Technologies B.V. Breda, The Netherlands), and placed for 14 days in a culture medium at 31° C. in a humidified atmosphere containing 5% CO2. Three different culture medium were used: • Treatment group oxovanadium (OVAN): The culture medium is a composition comprising a basic SFK growth serum (purchased from the supplier SFK, Enschede The Netherlands) supplemented with either 1 mg/ml of OVAN. • Treatment group bis (maltolato) oxovanadium (BMOV): The culture medium is a composition comprising a basic SFK growth serum (purchased from the supplier SFK, Enschede The Netherlands) supplemented with either 1 mg/ml of BMOV. • Control group: The control situation consists of a composition comprising the SFK basic growth serum but without the vanadium compounds (i.e. OVAN or BMOV).
The respective culture media were carefully removed every three days and replaced by fresh culture media. The cells remained attached to the hair follicles during this culture period. After 14 days the culture medium was removed and replaced by a 0.5 mg/ml trypsin, 0.2 mg/ml EDTA (ethylene diaminetetraacetic acid) solution (Life Technologies B.V. Breda, The Netherlands), and incubated for 5 minutes at 37° C. in this medium. After this incubation period clusters of cells were released from the hair follicles. These were harvested by centrifugation at 300 g at 4° C. for 5 minutes in a Eppendorf 5804R Centrifuge (VWR International, The Netherlands). Number of cells were counted and expressed as amount of proliferated cells per ml of culture medium.

Compound	proliferated keratinocytes, BMOV compared with OVAN (1 mg/ml each in basic SFK growth serum)	amount of proliferated keratinocytes (number of cells per ml of culture medium)
Cc1occc(=O)c1[O-].Cc1occc(=O)c1[O-].[O]=[V+2] [BMOV, bis(maltolato)oxovanadium]	more potent than OVAN; also recorded: greater number of proliferated cells relative to treatment with OVAN	significantly increased; also recorded: enhanced proliferation
oxovanadium	–	significantly increased; also recorded: enhanced proliferation
